Test results reported in ChEMBL document CHEMBL1201862, “PubChem BioAssay data set” (2004).
The source made the active and inactive calls.

Assays:
[1] = biological target: T1, Alkaline phosphatase, tissue-nonspecific isozyme (Homo sapiens, UniProt P05186); assay: TNAP enzyme inhibition by screening hits, dose response, selectivity assay for mouse IAP inhibitor project, biochemical, human TNAP, uHTS hits (AID 488906); format: functional
T1 sequence (P05186 whole entry): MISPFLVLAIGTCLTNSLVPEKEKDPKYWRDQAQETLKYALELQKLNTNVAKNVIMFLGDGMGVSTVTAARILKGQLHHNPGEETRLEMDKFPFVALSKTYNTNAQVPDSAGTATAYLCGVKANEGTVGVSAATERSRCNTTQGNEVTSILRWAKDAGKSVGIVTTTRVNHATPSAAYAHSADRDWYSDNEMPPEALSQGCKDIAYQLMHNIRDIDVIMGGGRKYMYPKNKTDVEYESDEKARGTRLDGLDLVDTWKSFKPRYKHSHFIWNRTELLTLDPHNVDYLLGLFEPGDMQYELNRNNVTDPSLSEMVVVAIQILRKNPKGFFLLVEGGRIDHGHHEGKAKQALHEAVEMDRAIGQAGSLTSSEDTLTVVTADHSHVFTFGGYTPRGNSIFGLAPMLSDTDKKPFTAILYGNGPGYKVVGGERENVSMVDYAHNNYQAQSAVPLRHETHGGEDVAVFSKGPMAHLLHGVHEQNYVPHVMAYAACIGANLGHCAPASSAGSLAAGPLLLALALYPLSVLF

[2] = biological target: 1-phosphatidylinositol 4,5-bisphosphate phosphodiesterase beta-3 (Homo sapiens, UniProt Q01970); assay: Fluorescence-based biochemical high throughput dose response assay to identify inhibitors of phospholipase C isozymes (PLC-B3).
Sequence of 1-phosphatidylinositol 4,5-bisphosphate phosphodiesterase beta-3 (Q01970 whole entry): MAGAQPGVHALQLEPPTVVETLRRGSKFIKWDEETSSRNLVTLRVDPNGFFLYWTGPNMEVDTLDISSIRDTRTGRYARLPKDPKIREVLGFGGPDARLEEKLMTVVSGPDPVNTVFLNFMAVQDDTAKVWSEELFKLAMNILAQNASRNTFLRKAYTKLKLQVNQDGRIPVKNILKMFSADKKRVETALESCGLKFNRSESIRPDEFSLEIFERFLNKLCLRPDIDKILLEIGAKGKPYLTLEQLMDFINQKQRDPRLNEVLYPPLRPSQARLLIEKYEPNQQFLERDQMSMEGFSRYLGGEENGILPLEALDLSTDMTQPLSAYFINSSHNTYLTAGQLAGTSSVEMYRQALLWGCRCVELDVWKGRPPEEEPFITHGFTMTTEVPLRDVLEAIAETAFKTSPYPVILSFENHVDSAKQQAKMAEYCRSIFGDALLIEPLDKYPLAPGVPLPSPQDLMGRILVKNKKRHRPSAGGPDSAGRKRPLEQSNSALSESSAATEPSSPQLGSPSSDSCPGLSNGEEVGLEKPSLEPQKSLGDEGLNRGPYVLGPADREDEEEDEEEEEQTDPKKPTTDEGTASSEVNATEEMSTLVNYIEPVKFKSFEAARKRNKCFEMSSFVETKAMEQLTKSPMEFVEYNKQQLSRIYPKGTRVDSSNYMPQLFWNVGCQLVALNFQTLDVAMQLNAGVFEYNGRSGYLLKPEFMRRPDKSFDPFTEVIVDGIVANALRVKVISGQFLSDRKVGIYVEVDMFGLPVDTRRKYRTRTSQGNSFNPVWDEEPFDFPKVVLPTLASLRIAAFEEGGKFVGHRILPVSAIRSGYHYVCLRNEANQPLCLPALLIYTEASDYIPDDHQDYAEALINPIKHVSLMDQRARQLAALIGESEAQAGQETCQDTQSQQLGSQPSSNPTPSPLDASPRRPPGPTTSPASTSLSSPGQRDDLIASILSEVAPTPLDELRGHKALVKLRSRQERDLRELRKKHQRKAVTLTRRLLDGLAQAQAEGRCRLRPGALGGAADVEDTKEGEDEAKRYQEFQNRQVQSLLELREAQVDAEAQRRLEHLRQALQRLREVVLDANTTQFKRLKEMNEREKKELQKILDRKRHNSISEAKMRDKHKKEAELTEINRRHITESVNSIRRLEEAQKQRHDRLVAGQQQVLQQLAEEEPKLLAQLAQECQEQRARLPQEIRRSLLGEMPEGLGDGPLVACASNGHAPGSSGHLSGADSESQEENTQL

[3] = biological target: Cytochrome P450 3A4 (Homo sapiens, UniProt P08684);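 further: CYP3A4 tested as one member of a cytochrome P450 panel screen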
Sequence of Cytochrome P450 3A4 (P08684 whole entry): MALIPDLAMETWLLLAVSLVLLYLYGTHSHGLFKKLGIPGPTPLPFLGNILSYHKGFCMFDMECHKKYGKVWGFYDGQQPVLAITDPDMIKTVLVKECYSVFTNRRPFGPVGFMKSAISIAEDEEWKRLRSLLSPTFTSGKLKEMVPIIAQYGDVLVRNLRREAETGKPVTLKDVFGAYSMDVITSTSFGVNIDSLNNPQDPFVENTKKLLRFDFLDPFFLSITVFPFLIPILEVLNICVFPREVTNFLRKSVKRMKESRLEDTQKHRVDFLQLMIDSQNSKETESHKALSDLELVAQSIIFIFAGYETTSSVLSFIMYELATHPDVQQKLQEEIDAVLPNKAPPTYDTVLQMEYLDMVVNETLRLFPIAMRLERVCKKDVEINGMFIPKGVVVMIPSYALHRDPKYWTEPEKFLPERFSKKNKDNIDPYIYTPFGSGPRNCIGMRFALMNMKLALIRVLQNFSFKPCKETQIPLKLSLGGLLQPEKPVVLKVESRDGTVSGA

[4] = biological target: Large T antigen (Simian virus 40, UniProt P03070); format: functional, Betapolyomavirus macacae;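 further: Confirmatory-stage PubChem screen for compounds that inhibit SV40 T antigen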
Sequence of Large T antigen (P03070 whole entry): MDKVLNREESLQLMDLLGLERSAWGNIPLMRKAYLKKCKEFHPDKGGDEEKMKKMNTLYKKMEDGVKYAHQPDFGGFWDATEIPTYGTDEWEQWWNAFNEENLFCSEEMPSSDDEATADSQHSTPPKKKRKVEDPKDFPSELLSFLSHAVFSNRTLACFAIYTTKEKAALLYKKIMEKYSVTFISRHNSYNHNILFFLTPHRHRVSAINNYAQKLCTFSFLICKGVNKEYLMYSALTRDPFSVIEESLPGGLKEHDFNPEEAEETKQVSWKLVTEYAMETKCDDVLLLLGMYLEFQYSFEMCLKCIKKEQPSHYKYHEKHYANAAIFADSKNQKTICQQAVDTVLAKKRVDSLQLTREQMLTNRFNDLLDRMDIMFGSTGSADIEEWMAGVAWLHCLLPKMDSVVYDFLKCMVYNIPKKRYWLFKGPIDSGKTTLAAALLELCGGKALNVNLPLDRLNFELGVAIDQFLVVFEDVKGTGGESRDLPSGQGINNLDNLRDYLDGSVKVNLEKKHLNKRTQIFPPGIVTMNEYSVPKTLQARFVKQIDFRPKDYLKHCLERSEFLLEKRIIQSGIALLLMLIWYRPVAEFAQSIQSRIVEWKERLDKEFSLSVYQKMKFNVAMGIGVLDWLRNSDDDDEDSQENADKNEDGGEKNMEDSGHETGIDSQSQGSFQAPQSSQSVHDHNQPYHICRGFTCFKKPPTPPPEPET

[5] = biological target: T2, Intestinal-type alkaline phosphatase (Mus musculus, UniProt P24822); assay: PubChem AID 488874; format: functional
T2 sequence (P24822 whole entry): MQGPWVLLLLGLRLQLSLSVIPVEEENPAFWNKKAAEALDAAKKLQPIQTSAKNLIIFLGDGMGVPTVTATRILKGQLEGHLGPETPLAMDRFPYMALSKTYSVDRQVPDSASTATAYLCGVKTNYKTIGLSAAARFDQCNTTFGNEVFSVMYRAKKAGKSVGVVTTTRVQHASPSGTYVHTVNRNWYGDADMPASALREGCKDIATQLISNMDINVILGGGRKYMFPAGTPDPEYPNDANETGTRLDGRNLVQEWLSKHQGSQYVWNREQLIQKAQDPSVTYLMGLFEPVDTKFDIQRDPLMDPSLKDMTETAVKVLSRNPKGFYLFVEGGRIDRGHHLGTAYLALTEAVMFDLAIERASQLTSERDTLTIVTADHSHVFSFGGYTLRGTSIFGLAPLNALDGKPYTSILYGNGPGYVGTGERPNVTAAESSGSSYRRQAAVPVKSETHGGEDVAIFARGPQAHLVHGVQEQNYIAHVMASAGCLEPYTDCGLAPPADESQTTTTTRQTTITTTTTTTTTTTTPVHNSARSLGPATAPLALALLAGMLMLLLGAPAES

[6] = biological target: 1-phosphatidylinositol 4,5-bisphosphate phosphodiesterase gamma-1 (Homo sapiens, UniProt P19174); assay: Counterscreen for inhibitors of phospholipase C isozymes (PLC-B3): Fluorescence-based biochemical high throughput dose response assay to identify inhibitors of phospholipase C isozymes (PLC-gamma1).
[7] = biological target: T2, Intestinal-type alkaline phosphatase; assay: PubChem AID 488785; format: functional
[8] = biological target: T3, Intestinal-type alkaline phosphatase (Homo sapiens, UniProt P09923); assay: inhibition of human intestinal alkaline phosphatase – biochemical, luminescent, uHTS hits, set 2, dose response (AID 488793); format: functional
T3 sequence (P09923 whole entry): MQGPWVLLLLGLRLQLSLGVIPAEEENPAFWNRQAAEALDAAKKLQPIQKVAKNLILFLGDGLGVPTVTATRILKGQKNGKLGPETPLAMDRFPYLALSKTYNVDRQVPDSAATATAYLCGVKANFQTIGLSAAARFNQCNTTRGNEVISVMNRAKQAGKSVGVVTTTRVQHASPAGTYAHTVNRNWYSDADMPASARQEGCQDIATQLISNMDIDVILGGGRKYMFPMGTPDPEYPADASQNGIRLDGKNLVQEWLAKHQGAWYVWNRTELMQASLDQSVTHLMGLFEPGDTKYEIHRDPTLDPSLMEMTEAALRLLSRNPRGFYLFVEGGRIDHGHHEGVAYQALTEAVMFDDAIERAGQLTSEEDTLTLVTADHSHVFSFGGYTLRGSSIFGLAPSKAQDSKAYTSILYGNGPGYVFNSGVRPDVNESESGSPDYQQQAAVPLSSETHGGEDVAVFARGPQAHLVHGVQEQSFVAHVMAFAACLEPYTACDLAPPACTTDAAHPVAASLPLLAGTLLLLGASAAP

[9] = biological target: T3, Intestinal-type alkaline phosphatase; assay: activation of human intestinal alkaline phosphatase – biochemical, dose response (AID 488873); format: functional
[10] = biological target: T1, Alkaline phosphatase, tissue-nonspecific isozyme; assay: inhibition of tissue-nonspecific alkaline phosphatase – biochemical, dose response (AID 488882); format: functional
[11] = biological target: T3, Intestinal-type alkaline phosphatase; assay: Dose Response confirmation of uHTS hits from a small molecule inhibitors of human intestinal alkaline phosphatase via a luminescent assay. [Related pubchem assays (depositor defined):AID2544, AID2574]; format: functional
[12] = DRD fibroblast viability loss – cell-based, non-viral oncogenic, luminescence, dose response (AID 1934); format: functional; settings: Homo sapiens
[13] = tested on: BJ; assay: cells; format: functional, cell-based; settings: Homo sapiens
[14] = biological target: Phospholipase A2 (Homo sapiens, UniProt P04054); assay: phospholipase A2 activity inhibition – biochemical, set 2, counter-screen for ATG4B inhibitor project, dose response (AID 588586); format: functional
Sequence of Phospholipase A2 (P04054 whole entry): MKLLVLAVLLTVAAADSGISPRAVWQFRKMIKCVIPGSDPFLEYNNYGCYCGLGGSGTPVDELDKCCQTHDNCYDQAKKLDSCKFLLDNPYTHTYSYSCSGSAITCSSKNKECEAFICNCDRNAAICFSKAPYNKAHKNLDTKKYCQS

[15] = biological target: T4, Cysteine protease ATG4B (Homo sapiens, UniProt Q9Y4P1); assay: autophagin-1 cysteine protease inhibition – biochemical, fluorescence, set 2, dose response (AID 588584); format: functional
T4 sequence (Q9Y4P1 whole entry): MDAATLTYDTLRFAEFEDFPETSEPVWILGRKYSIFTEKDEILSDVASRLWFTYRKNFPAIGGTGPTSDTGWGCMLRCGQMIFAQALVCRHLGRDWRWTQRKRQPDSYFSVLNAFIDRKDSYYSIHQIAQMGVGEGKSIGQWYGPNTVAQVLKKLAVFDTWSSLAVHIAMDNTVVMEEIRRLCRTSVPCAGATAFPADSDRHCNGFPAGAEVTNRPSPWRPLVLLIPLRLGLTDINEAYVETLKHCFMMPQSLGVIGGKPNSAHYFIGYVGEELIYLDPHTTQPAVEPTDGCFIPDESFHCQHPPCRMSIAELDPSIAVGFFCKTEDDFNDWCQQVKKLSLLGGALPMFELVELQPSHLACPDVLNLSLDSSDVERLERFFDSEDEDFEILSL

[16] = tested on: BJ; assay: BJ-TERT fibroblast viability loss – cell-based, RAS-independent, luminescence, dose response (AID 1933); format: functional; settings: Homo sapiens
[17] = Luminescence Cell-Based Dose Retest to Confirm Inhibitors of Cancer Stem Cells. [Related pubchem assays (depositor defined):AID2717, AID2721]; format: functional; settings: Homo sapiens
[18] = fluconazole-exposed Candida albicans growth modulators – fluorescence, retest, confirmation (AID 2467); format: functional, cell-based
[19] = viability loss of HMLE_sh_eGFP cells – cell-based, luminescence, counter-screen for HMLE_sh_ECad selective toxicity project, dose response (AID 463074); format: functional, Homo sapiens;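 further: HMLE human mammary epithelial cells expressing control shRNA against eGFP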
[20] = NIH-3T3 fibroblast cytotoxicity, dose response, cytotoxicity control, cell-based, fluorescence, Alamar Blue, secondary assay (AID 2327); format: functional;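 further: NIH-3T3 mouse fibroblasts cultured with fluconazole at 8 µg/mL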
[21] = biological target: T5, Cytochrome P450 1A2 (Homo sapiens, UniProt P05177);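 further: PubChem cytochrome P450 panel assay, CYP1A2 panel member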
T5 sequence (P05177 whole entry): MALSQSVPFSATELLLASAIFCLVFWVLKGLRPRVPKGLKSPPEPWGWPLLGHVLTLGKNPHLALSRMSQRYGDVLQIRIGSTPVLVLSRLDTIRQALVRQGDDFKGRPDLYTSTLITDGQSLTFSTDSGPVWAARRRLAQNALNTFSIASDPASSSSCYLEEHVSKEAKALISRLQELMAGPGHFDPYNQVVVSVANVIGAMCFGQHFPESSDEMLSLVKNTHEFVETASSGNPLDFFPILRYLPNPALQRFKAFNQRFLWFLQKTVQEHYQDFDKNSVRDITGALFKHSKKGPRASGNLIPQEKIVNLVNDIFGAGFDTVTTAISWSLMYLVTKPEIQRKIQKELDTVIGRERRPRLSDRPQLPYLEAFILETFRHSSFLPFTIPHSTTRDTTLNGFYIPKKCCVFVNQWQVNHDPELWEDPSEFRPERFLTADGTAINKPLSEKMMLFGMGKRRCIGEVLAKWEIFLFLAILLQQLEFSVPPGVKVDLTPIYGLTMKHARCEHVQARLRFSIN

[22] = biological target: Beta-adrenergic receptor kinase 1 (Homo sapiens, UniProt P25098); assay: blockers of aptamer binding to GRK2 – biochemical, flow cytometry beads, FAM-aptamer, powder set 1, dose response (AID 588720)
Sequence of Beta-adrenergic receptor kinase 1 (P25098 whole entry): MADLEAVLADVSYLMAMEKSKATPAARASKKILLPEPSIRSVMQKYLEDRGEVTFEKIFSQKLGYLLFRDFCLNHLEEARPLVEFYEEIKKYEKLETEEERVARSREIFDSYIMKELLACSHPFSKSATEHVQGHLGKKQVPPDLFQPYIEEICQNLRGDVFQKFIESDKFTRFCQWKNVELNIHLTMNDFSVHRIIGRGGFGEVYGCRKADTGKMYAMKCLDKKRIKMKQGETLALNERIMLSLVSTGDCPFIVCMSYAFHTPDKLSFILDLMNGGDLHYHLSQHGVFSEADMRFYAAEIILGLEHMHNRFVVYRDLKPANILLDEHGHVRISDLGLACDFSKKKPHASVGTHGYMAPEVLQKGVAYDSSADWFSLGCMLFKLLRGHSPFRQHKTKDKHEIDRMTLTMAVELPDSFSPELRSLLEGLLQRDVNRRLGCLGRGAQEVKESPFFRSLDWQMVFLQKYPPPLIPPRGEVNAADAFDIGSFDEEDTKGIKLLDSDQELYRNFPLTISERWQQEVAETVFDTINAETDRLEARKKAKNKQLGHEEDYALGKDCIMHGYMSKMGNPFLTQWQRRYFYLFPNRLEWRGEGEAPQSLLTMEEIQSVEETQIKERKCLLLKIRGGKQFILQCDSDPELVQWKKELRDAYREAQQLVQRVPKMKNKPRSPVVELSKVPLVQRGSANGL

[23] = biological target: T6, Ubiquitin-conjugating enzyme E2 N (Homo sapiens, UniProt P61088); format: functional;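 further: Dose-response confirmation in a TR-FRET assay detecting UBC13-driven polyubiquitin chain formation, inhibition measured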
T6 sequence (P61088 whole entry): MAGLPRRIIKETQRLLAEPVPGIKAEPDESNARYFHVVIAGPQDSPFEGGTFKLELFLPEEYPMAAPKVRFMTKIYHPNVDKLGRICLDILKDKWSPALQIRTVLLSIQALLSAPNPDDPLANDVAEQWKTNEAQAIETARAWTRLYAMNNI

[24] = biological target: T7, Protein RecA (Mycobacterium tuberculosis, UniProt P9WHJ3); assay: Fluorescence Cell-Free Homogeneous Dose Retest to Identify Inhibitors of RecA-Intein Splicing Activity. [Related pubchem assays (depositor defined):AID2097, AID2223, AID489010, AID492950]; format: functional
T7 sequence (P9WHJ3 whole entry): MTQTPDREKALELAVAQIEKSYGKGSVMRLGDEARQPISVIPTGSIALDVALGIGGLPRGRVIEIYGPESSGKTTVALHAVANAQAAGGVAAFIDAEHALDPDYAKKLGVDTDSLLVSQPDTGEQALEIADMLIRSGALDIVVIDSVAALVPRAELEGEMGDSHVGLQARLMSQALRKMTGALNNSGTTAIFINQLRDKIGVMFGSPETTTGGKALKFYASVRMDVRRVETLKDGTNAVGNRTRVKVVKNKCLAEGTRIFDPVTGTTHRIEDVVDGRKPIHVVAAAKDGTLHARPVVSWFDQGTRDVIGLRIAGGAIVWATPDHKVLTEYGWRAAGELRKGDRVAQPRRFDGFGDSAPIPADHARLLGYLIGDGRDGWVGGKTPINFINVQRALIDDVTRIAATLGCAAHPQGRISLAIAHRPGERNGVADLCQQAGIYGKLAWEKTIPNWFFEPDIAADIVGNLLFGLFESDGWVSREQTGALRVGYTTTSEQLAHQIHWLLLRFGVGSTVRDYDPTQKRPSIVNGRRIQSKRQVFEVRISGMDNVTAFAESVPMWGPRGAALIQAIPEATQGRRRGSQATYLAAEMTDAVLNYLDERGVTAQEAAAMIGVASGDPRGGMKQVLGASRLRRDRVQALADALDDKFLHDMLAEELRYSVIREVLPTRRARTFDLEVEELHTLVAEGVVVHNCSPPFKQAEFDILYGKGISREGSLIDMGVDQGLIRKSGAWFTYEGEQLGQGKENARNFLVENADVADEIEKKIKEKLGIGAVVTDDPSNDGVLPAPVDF

[25] = biological target: T8, Replicative DNA helicase DnaB (Mycobacterium tuberculosis, UniProt P9WMR3); assay: DnaB intein splicing inhibitors, dose response, biochemical, cell-free fluorescence (AID 449749); format: functional
T8 sequence (P9WMR3 whole entry): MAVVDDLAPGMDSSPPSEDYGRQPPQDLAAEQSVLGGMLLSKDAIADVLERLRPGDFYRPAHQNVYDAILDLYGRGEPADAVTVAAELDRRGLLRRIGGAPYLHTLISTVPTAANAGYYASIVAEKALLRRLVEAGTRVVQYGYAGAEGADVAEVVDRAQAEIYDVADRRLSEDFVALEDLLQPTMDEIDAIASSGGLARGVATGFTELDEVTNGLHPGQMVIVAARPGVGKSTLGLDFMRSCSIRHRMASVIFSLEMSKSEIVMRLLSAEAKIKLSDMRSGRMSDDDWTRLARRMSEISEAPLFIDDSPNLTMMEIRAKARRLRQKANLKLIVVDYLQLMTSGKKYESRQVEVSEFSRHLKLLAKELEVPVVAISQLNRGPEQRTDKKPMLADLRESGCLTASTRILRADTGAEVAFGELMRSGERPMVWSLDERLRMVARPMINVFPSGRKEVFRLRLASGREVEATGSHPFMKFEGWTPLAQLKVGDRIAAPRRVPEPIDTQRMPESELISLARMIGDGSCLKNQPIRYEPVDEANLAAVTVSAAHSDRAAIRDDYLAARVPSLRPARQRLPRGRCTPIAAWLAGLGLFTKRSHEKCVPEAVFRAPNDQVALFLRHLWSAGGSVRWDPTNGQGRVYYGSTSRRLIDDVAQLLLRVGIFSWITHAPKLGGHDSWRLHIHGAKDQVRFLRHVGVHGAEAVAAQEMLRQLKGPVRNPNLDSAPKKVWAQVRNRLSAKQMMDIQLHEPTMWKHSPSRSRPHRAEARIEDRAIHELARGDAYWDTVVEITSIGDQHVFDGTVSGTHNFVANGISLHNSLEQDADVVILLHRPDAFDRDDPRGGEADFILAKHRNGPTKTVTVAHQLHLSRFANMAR

[26] = MIN6 cell viability loss – mouse insulinoma, cytotoxicity control, dose response (AID 2122); format: functional;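 further: confirmatory high-throughput counterscreen run to flag cytotoxic compounds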
[27] = decrease of insulin promoter-GFP reporter – imaging, high-content screening, mouse beta cells (AID 1628); format: functional; settings: MIN6
[28] = biological target: Cytochrome P450 2C19 (Homo sapiens, UniProt P33261); assay: Cytochrome panel assay with activity outcomes. Panel member name: p450-cyp2c19 Compounds with AC50 equal or less than 10 uM are considered active; format: functional
Sequence of Cytochrome P450 2C19 (P33261 whole entry): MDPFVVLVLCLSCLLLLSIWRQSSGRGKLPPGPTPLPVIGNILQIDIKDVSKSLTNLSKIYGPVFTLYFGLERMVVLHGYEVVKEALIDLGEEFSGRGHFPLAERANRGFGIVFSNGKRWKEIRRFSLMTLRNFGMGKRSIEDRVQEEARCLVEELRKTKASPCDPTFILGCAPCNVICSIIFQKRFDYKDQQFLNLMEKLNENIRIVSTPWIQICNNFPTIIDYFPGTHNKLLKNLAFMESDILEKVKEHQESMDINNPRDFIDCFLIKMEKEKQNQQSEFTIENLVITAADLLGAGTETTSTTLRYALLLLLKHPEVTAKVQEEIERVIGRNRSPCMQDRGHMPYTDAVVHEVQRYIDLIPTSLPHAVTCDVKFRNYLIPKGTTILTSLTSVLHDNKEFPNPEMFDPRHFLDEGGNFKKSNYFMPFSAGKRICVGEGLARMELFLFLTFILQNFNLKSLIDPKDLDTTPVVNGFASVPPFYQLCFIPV

[29] = biological target: Cytochrome P450 2D6 (Homo sapiens, UniProt P10635);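 further: CYP2D6 member of a cytochrome P450 panel assay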
[30] = biological target: T5, Cytochrome P450 1A2; remark: listed apart in the source
[31] = biological target: Cytochrome P450 2C9 (Homo sapiens, UniProt P11712)

COc1cc(/C=C(\C#N)C(=O)c2ccc(O)c(O)c2)cc(I)c1O
IC50 [1]: > 100 µM (inactive) | IC50 [2]: > 122 µM (inactive) | AC50 [3]: 12.6 µM (inconclusive) | IC50 [4]: 7.17 µM (active) | IC50 [5]: < 0.195 µM (active) | IC50 [6]: > 122 µM (inactive) | IC50 [7]: 5.7 µM (active) | IC50 [8]: 4.56 µM (active) | EC50 [9]: > 100 µM (inactive) | IC50 [10]: 5.88 µM (active) | IC50 [11]: 7.31 µM (active)

CCC1=Nc2cc(C(=O)NCc3ccco3)ccc2Sc2ccc(Cl)cc21
EC50 [12]: 1.97 µM (active) | EC50 [13]: 20.4 µM (active) | IC50 [14]: 40.1 µM (inactive) | IC50 [15]: > 80 µM (inactive) | EC50 [16]: 1.55 µM (active)

CCCc1ccc(C2C3=C(CC(C)(C)CC3=O)N=C3C2=C(O)c2ccccc23)cc1 (stereo unspecified)
AC50 [17]: 24.9 µM (active) | EC50 [18]: 2.66 µM (active) | AC50 [19]: 187 µM (active) | EC50 [20]: > 150 µM (inactive) | AC50 [21]: 6.31 µM (inconclusive)

COc1ccc(NC(=O)CCS(=O)(=O)c2ccc(Br)s2)cc1
EC50 [22]: 9.14 µM (active)

Fc1ccc(Nc2nc(NCc3ccco3)c3ccccc3n2)cc1
IC50 [23]: > 20 µM (inactive) | EC50 [24]: 8.32 µM (active) | AC50 [25]: 1.93 µM (active) | IC50 [26]: 1.93 µM (active) | IC50 [27]: 1.7 µM (active)

Cn1cccc1C(=O)N1CCC2(CCCN(c3ncccn3)C2)CC1
AC50 [28]: inconclusive | AC50 [29]: inconclusive | AC50 [30]: inconclusive | AC50 [31]: inconclusive
